Like-named read-outs stand apart in the source and are kept apart here.
What was measured:
[1] = biological target: T1, human AMP kinase 1 (hAK1, cytosolic adenylate kinase) (Homo sapiens, UniProt P00568); assay: coupled spectrophotometric NMP kinase assay, hAK1; type: biochemical; conditions: for Km: hAK1, 37°C, 1 mM ATP, – = Non detectable; for phosphorylation (in words): hAK1
T1 sequence (P00568 1-194): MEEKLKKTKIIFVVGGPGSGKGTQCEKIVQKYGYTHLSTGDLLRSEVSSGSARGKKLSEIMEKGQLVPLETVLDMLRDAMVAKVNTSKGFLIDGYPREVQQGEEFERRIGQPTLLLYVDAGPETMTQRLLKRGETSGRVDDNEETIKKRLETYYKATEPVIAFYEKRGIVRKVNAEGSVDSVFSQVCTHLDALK

[2] = biological target: human AMP kinase 2 (hAK2, mitochondrial adenylate kinase) (Homo sapiens, UniProt P54819); assay: coupled spectrophotometric NMP kinase assay, hAK2; conditions: for Km: hAK2, 37°C, 1 mM ATP, – = Non detectable; for phosphorylation (in words): hAK2
[3] = biological target: T2, human UMP-CMP kinase (hUCK) (Homo sapiens, UniProt P30085); assay: coupled spectrophotometric NMP kinase assay, hUCK; type: biochemical; conditions: for Km: 37°C, 1 mM ATP; for Relative Vmax: relative to kcat of D-CMP (100 = kcat 130 s^−1)
T2 sequence (P30085 1-196): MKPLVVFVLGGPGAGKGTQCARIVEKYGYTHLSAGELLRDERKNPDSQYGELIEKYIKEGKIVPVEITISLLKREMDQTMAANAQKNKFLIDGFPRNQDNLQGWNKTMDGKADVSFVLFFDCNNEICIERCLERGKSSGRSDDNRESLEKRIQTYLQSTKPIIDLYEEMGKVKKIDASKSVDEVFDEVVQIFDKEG

[4] = biological target: T3, human dTMP kinase (hTMPK) (Homo sapiens, UniProt P23919); assay: coupled spectrophotometric NMP kinase assay, hTMPK; type: biochemical
T3 sequence (P23919 1-212): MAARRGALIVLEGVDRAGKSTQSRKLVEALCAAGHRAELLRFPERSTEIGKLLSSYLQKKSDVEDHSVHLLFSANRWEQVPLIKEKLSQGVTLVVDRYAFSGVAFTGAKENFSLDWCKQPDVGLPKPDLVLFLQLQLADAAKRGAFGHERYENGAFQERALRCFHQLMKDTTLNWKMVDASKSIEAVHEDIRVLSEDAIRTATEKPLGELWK

[5] = biological target: T4, hTMPK (Homo sapiens, UniProt P23919); assay: fluorescence competition assay with MABA-dTDP; type: binding
T4 sequence (P23919 1-212): T3 sequence (P23919 1-212)

[6] = biological target: T2, human UMP-CMP kinase (hUCK); conditions: cited from earlier work
[7] = test system: chronic B hepatitis virus load; conditions: woodchuck, in vivo; less efficiently than L-dC or L-dT; cited from earlier work
[8] = test system: hdCK; conditions: first phosphorylation of L-dT by hdCK; cited from earlier work
[9] = test system: hTK2; conditions: first phosphorylation of L-dT by hTK2; cited from earlier work
[10] = test system: phosphoglycerate kinase; conditions: conversion of L-dTDP into L-dTTP; cited from earlier work
[11] = test system: Nc1ccn(C2OC(COP(=O)(O)O)C(O)C2O)c(=O)n1; assay: purified protein, by the assay type; conditions: other: hAK2, 37°C, 1 mM ATP; – = Non detectable; 37.0 °C
[12] = test system: Nc1ncnc2c1ncn2[C@@H]1C[C@@H](O)[C@H](COP(=O)(O)O)O1; assay: purified protein, by the assay type; conditions: other: hAK2; – = Non detectable
[13] = 2 mM ATP and 2 mM Mg^2+ (Figure 2)

Nc1ncnc2c1ncn2[C@@H]1O[C@H](COP(=O)(O)O)[C@@H](O)[C@H]1O [D-AMP]
Km [1]: 140 ± 20 µM | Km [2]: 80 ± 20 µM

O=c1ccn([C@@H]2O[C@H](COP(=O)(O)O)[C@@H](O)[C@H]2O)c(=O)[nH]1 [D-UMP]
Km [1]: 6000 ± 2000 µM | Km [3]: 50 ± 10 µM | Relative Vmax [3]: 100%

Nc1ncnc2c1ncn2[C@H]1C[C@H](O)[C@@H](COP(=O)(O)O)O1 [D-dAMP]
Km [1]: 1500 ± 300 µM | Km [2]: 210 ± 50 µM

Nc1ccn([C@H]2C[C@H](O)[C@@H](COP(=O)(O)O)O2)c(=O)n1 [D-dCMP]
phosphorylation (in words) [1]: not substrates | Km [3]: 1000 ± 100 µM | Relative Vmax [3]: 61 ± 4% | phosphorylation (in words) [2]: not substrates

O=c1ccn([C@H]2C[C@H](O)[C@@H](COP(=O)(O)O)O2)c(=O)[nH]1 [D-dUMP]
phosphorylation (in words) [1]: not substrates | Km [4, 13]: 170 ± 10 µM | kcat [4, 13]: 4.8 ± 0.6 s⁻¹ | Km [3]: 1300 ± 300 µM | Relative Vmax [3]: 5.1 ± 0.5% | Kd ([5]; read-out: dissociation constant KD, calculated from IC50 with Equation (1)): 150 µM | phosphorylation (in words) [2]: not substrates

Nc1ccn([C@@H]2CS[C@H](COP(=O)(O)O)O2)c(=O)n1 [L-3TCMP]
Km ([6]; for comparison): 150 ± 20 µM | Relative Vmax ([6]; relative to D-CMP): 27%

Nc1ncnc2c1ncn2[C@@H]1C[C@@H](O)[C@H](CO)O1 [L-dA]
effect on virus load (in words) [7]: reduced the virus load

Cc1cn([C@@H]2C[C@@H](O)[C@H](CO)O2)c(=O)[nH]c1=O [L-dT, β-L-thymidine]
Kd [5]: 450 µM | catalytic efficiency [8]: 16000 M⁻¹ s⁻¹ | catalytic efficiency [9]: 1e+07 M⁻¹ s⁻¹

Cc1cn(C2CC(O)C(COP(=O)(O)OP(=O)(O)O)O2)c(=O)[nH]c1=O [L-dTDP]
catalytic efficiency [10]: 500 M⁻¹ s⁻¹

[N-]=[N+]=N[C@@H]1[C@H](O)[C@@H](COP(=O)(O)O)O[C@H]1n1ccc(=O)[nH]c1=O [N3-D-dUMP]
phosphorylation (in words) [1]: did not significantly phosphorylate | phosphorylation (in words) [4]: did not significantly phosphorylate | substrate inhibition at high concentration (in words) [3]: did not give rise to substrate inhibition | Km [3]: 900 ± 200 µM | Relative Vmax [3]: 89 ± 6% | phosphorylation (in words) [2]: did not significantly phosphorylate

human AMP kinase 2 (hAK2, mitochondrial adenylate kinase) (Homo sapiens)
Km [11]: 6000 ± 1000 µM | kcat/Km [12]: 70 M⁻¹ s⁻¹
